Results reported in paper PMC9582194, “The effect of helix-inducing constraints and downsizing upon a transcription block survival-derived functional cJun antagonist” (Cell Reports. Physical Science, 2022).

Legend:
cJun = target: T1, cJun (Homo sapiens, UniProt P05412); experiment: CD thermal denaturation of peptide-cJun heterodimers (Tm); type: binding; settings: CD ellipticity at 222 nm, 1-90 °C; peptide (5 μM)/cJun (5 μM); 20 mM potassium phosphate, 150 mM potassium fluoride, 2 mM TCEP pH 7.4; two-state fit; duplicate experiments, ± one SD
T1 construct: The same 60 amino acid cJun construct, encompassing the entire bZIP domain, was used for all experiments
Protocol: (§1) The precise nature of the interaction between the cJun DBD and the rationally designed acidic domain of HW1 is unknown. HW1 was, therefore, iteratively truncated from the N terminus (HW2–6) to investigate the effect on cJun binding and cJun/TRE DNA antagonism (Table 1). Peptide fraction helicity (fH) was determined by quantifying the circular dichroism (CD) signal at 222 nm of peptide-only samples (Figure S1). Thermal denaturation experiments were then used to determine the melting temperature (Tm) of peptide-cJun heterodimers, which serves as an approximate measure of target engagement. CD was also used to investigate the functional activity of peptides in antagonizing the cJun/TRE DNA interaction. […] This provides a clear and direct measurement of the proportion of DNA bound to cJun. As antagonist peptide concentration was increased, the peak shifted to overlay with that of free TRE-DNA (Figure S4). For each peptide, the data were fit to a Hill equation to determine half-maximal inhibitory concentration (IC50) values, specific to these assay conditions, providing a clear comparative measure of antagonism. The same 60 amino acid cJun construct, encompassing the entire bZIP domain, was used for all experiments regardless of antagonist peptide length.
Figure 2 Iterative N-terminal truncation of HingeW reduces cJun binding and antagonism (A) Thermal denaturation profiles for iteratively truncated peptide (5 μM)/cJun (5 μM) heterodimer samples. (B) CD antagonism data produced by monitoring the shift in a DNA specific peak to provide a direct readout of cJun-DNA binding. Peptides are added at the indicated concentrations to a pre-incubated mixture of cJun (20 μM) and TRE DNA (5 μM). Data points were averaged from triplicate experiments, and error bars indicate one SD. The data were fitted to a Hill equation to determine IC50 values. Some higher peptide concentration data points for HW6 and HW9 are not shown in this plot for clarity.

[1] = Peptide fraction helicity by CD at 222 nm, peptide-only samples; type: physicochemical; settings: CD signal at 222 nm of peptide-only samples; pH 7.4 phosphate/KF/TCEP buffer; duplicate experiments
Protocol: as §1

[2] = CD thermal denaturation of peptide alone, 222 nm
Protocol: The LZ domain of HW1 has four point mutations from its parent sequence, FosW, which is known to homodimerize.[24]
Protein/DNA samples were suspended in 20 mM potassium phosphate, 150 mM potassium fluoride, and 2 mM TCEP (pH 7.4). cJun was added to DNA before addition of antagonist peptide, and these samples were equilibrated for 30 min before measurement.

T1 sequence (P05412 252-315 limits assumed): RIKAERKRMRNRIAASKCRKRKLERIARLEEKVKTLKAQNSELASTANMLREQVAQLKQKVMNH

Ac-LVVEEDVLEEEIEQLEERNYALRKEIEDLQKQLEKL-NH2 [HW5]
Tm of peptide-cJun heterodimer (cJun): 62.8 ± 1.0 °C
fH, peptide fraction helicity [1]: 46.7%
Tm of peptide alone [2]: 41 °C
